According to PMC9653173, “Trotabresib (CC-90010) in combination with adjuvant temozolomide or concomitant temozolomide plus radiotherapy in patients with newly diagnosed glioblastoma” (Neuro-Oncology Advances, 2022):
“And” between values parts separate entries of the source, which are not always exact repeats. Equal values may be shown once. Read-outs that look alike come from different tables or passages of the source.

What was measured:
[1] = system: patients with newly diagnosed glioblastoma
From the text: The phase Ib, dose-escalation part of this study explored escalating oral doses of trotabresib in combination with TMZ in the adjuvant setting and with TMZ plus RT in the concomitant setting. […] Dose-escalation decisions were made by the safety review committee, based on all available safety, pharmacokinetics, pharmacodynamics, and preliminary efficacy information, and a calculation of risk assessment using a Bayesian logistic regression model.
The primary endpoints of the study were to determine the safety and tolerability, maximum tolerated dose, and/or recommended phase II dose (RP2D) of trotabresib in combination with TMZ as adjuvant therapy, and with TMZ and RT as concomitant therapy. […] Trotabresib pharmacodynamics was an exploratory endpoint.
Adverse events (AEs) were classified using the Medical Dictionary for Regulatory Activities v18.1 or higher system organ class and preferred term. Severity of AEs was graded based on the patient’s symptoms according to the National Cancer Institute Common Terminology Criteria for Adverse Events v5.0.[35] Dose-limiting toxicities (DLTs) were defined as any of the toxicities described in Supplementary Table S2 occurring within the DLT assessment period (cycle 1 [28 days]), unless the event could clearly be determined to be unrelated to trotabresib. Screening MRI scans were performed after surgical resection and within 28 days (+3 days) prior to initiation of study treatment. Subsequent tumor assessments by MRI or CT were performed at week 10 during the concomitant treatment period and at the end of every other treatment cycle from cycle 2 onwards during the adjuvant and trotabresib monotherapy treatment periods. Best overall response (BOR) was evaluated as complete response (CR), partial response (PR), SD, progressive disease (PD), or not evaluable, according to Response Assessment in Neuro-Oncology criteria for high-grade glioma.[36] Plasma samples were collected during the first treatment cycle for investigation of trotabresib pharmacokinetics and pharmacodynamics. Plasma pharmacokinetic parameters assessed included peak plasma concentration (Cmax), time to peak plasma concentration (tmax), area under the plasma concentration–time curve (AUC), and terminal half-life (t½). Pharmacodynamic markers assessed included blood levels of CCR1 and HEXIM1 mRNA, which are established markers of BET inhibitor target engagement.[17],[22],[37],[38]

[2] = system: MGMT; test: In vivo downregulation of MGMT; settings: preclinical; Supplementary Figure S2
From the text: Supplementary Figure 2. In vivo downregulation of MGMT (A) mRNA by trotabresib as a single agent and (B) protein by trotabresib in combination with TMZ.

[3] = adjuvant overall (N = 18), related to labelled drug(s)
[4] = concomitant overall (N = 14), related to labelled drug(s)

Cn1cc(-c2cc(S(C)(=O)=O)ccc2OCC2CC2)c2ccccc2c1=O [Trotabresib]
Thrombocytopenia TRAE, grade 3/4 [1, 3]: 7 (39%) n (%) and 7 (39) n (%) | Vomiting TRAE, any grade [1, 3]: 4 (22) n (%) | Vomiting TRAE, grade 3/4 [1, 3]: 0 n (%) | Serious intracranial hemorrhage, attributed to trotabresib ([1]; adjuvant, trotabresib 30 mg): 1 patient | Serious diarrhea, attributed to trotabresib ([1]; adjuvant, trotabresib 45 mg): 1 patient | Treatment-related deaths ([1]; both cohorts): no treatment-related deaths | Rash and other skin-related TRAEs attributed to trotabresib only ([1]; concomitant overall): 4 (29%) n (%) | ALT increased TRAE, any grade [1, 4]: 1 (7) n (%) | ALT increased TRAE, grade 3/4 [1, 4]: 1 (7) n (%) | AST increased TRAE, any grade [1, 4]: 1 (7) n (%) | AST increased TRAE, grade 3/4 [1, 4]: 0 n (%) | Acneiform dermatitis TRAE, any grade [1, 4]: 3 (21) n (%) | Acneiform dermatitis TRAE, grade 3/4 [1, 4]: 0 n (%) | Anemia TRAE, any grade [1, 4]: 3 (21) n (%) | Anemia TRAE, grade 3/4 [1, 4]: 2 (14) n (%) | Any TRAE, any grade [1, 4]: 14 (100) n (%) | Any TRAE, grade 3/4 [1, 4]: 7 (50) n (%) | Asthenia TRAE, any grade [1, 4]: 3 (21) n (%) | Asthenia TRAE, grade 3/4 [1, 4]: 0 n (%) | Blood bilirubin increased TRAE, any grade [1, 4]: 2 (14) n (%) | Blood bilirubin increased TRAE, grade 3/4 [1, 4]: 0 n (%) | Decreased appetite TRAE, any grade [1, 4]: 3 (21) n (%) | Decreased appetite TRAE, grade 3/4 [1, 4]: 0 n (%) | Diarrhea TRAE, any grade [1, 4]: 2 (14) n (%) | Diarrhea TRAE, grade 3/4 [1, 4]: 1 (7) n (%) | Dysgeusia TRAE, any grade [1, 4]: 5 (36) n (%) | Dysgeusia TRAE, grade 3/4 [1, 4]: 0 n (%) | Dyspepsia TRAE, any grade [1, 4]: 2 (14) n (%) | Dyspepsia TRAE, grade 3/4 [1, 4]: 0 n (%) | Fatigue TRAE, any grade [1, 4]: 5 (36) n (%) | Fatigue TRAE, grade 3/4 [1, 4]: 1 (7) n (%) | Hyperbilirubinemia TRAE, any grade [1, 4]: 2 (14) n (%) | Hyperbilirubinemia TRAE, grade 3/4 [1, 4]: 0 n (%) | Hyperglycemia TRAE, any grade [1, 4]: 1 (7) n (%) | Hyperglycemia TRAE, grade 3/4 [1, 4]: 0 n (%) | Hypophosphatemia TRAE, any grade [1, 4]: 1 (7) n (%) | Hypophosphatemia TRAE, grade 3/4 [1, 4]: 0 n (%) | Hypotension TRAE, any grade [1, 4]: 0 n (%) | Hypotension TRAE, grade 3/4 [1, 4]: 0 n (%) | Insomnia TRAE, any grade [1, 4]: 0 n (%) | Insomnia TRAE, grade 3/4 [1, 4]: 0 n (%) | Intracranial hemorrhage TRAE, any grade [1, 4]: 0 n (%) | Intracranial hemorrhage TRAE, grade 3/4 [1, 4]: 0 n (%) | Leukopenia TRAE, any grade [1, 4]: 0 n (%) | Leukopenia TRAE, grade 3/4 [1, 4]: 0 n (%) | Lymphopenia TRAE, any grade [1, 4]: 2 (14) n (%) | Lymphopenia TRAE, grade 3/4 [1, 4]: 0 n (%) | Nausea TRAE, any grade [1, 4]: 8 (57%) n (%) and 8 (57) n (%) | Nausea TRAE, grade 3/4 [1, 4]: 0 n (%) | Neutropenia TRAE, any grade [1, 4]: 6 (43) n (%) | Neutropenia TRAE, grade 3/4 [1, 4]: 4 (29) n (%) | Pruritus TRAE, any grade [1, 4]: 0 n (%) | Pruritus TRAE, grade 3/4 [1, 4]: 0 n (%) | Rash TRAE, any grade [1, 4]: 1 (7) n (%) | Rash TRAE, grade 3/4 [1, 4]: 0 n (%) | Seizure TRAE, any grade [1, 4]: 2 (14) n (%) | Seizure TRAE, grade 3/4 [1, 4]: 0 n (%) | Thrombocytopenia TRAE, any grade [1, 4]: 9 (64%) n (%) and 9 (64) n (%) | Thrombocytopenia TRAE, grade 3/4 [1, 4]: 6 (43%) n (%) and 6 (43) n (%) | Vomiting TRAE, any grade [1, 4]: 5 (36) n (%) | Vomiting TRAE, grade 3/4 [1, 4]: 0 n (%) | Platelet nadir ([1]; trotabresib 30 mg 4 days on/24 days off): > 100,000 /mm^3 | MGMT expression [2]: downregulates MGMT expression in a dose-dependent manner
